Legend:
Assay in all cases: viability relative to DMSO control (fraction); higher = less drug effect (more viable cells)
Conditions in all cases: 48 h
[1] = system: primary ALL patient cells (S048)
Method in brief: (§1)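 Viability is given as CellTiter-Glo luminescence relative to the median of 16 inner DMSO wells. Fresh or cryopreserved primary mononuclear tumour cells from blood, bone marrow (both Ficoll-isolated) or processed lymph node were plated at 4 × 10^4 cells per well in 384-well plates against five pre-plated compound concentrations, one well each. Incubation lasted 48 h at 37 °C and 5% CO2 in RPMI-1640 with penicillin/streptomycin, L-glutamine and human serum.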

[2] = system: primary AML patient cells (S002)
Method in brief: as §1

[3] = system: primary AML patient cells (S012)
Method in brief: as §1

[4] = system: primary AML patient cells (S017)
Method in brief: as §1

[5] = system: primary AML patient cells (S019)
Method in brief: as §1

[6] = system: primary AML patient cells (S025)
Method in brief: as §1

[7] = system: primary AML patient cells (S037)
Method in brief: as §1

[8] = system: primary AML patient cells (S056)
Method in brief: as §1

[9] = system: primary AML patient cells (S071)
Method in brief: as §1

[10] = system: primary AML patient cells (S072)
Method in brief: as §1

[11] = system: primary AML patient cells (S079)
Method in brief: as §1

[12] = system: primary AML patient cells (S085)
Method in brief: as §1

[13] = system: primary AML patient cells (S089)
Method in brief: as §1

[14] = system: primary AML patient cells (S091)
Method in brief: as §1

[15] = system: primary BL patient cells (S005)
Method in brief: as §1

[16] = system: primary CLL patient cells (S031)
Method in brief: as §1

[17] = system: primary CLL patient cells (S043)
Method in brief: as §1

[18] = system: primary FL patient cells (S022)
Method in brief: as §1

[19] = system: primary MCL patient cells (S053)
Method in brief: as §1

[20] = system: primary MCL patient cells (S068)
Method in brief: as §1

CN1CC[C@H](c2c(O)cc(O)c3c(=O)cc(-c4ccccc4Cl)oc23)[C@H](O)C1 [Flavopiridol]
viability ([1]; 0.0032 µM): 0.998
viability ([1]; 0.016 µM): 1
viability ([1]; 0.08 µM): 1.1
viability ([1]; 0.4 µM): 0.535
viability ([1]; 2 µM): 0.0207
viability ([2]; 0.0032 µM): 1.02
viability ([2]; 0.016 µM): 0.927
viability ([2]; 0.08 µM): 0.69
viability ([2]; 0.4 µM): 0.241
viability ([2]; 2 µM): 0.244
viability ([3]; 0.0032 µM): 0.979
viability ([3]; 0.016 µM): 0.904
viability ([3]; 0.08 µM): 0.869
viability ([3]; 0.4 µM): 0.151
viability ([3]; 2 µM): 0.0418
viability ([4]; 0.0032 µM): 1
viability ([4]; 0.016 µM): 0.986
viability ([4]; 0.08 µM): 0.96
viability ([4]; 0.4 µM): 0.18
viability ([4]; 2 µM): 0.0397
viability ([5]; 0.0032 µM): 1.08
viability ([5]; 0.016 µM): 0.769
viability ([5]; 0.08 µM): 0.961
viability ([5]; 0.4 µM): 0.198
viability ([5]; 2 µM): 0.0784
viability ([6]; 0.0032 µM): 0.958
viability ([6]; 0.016 µM): 0.861
viability ([6]; 0.08 µM): 0.691
viability ([6]; 0.4 µM): 0.13
viability ([6]; 2 µM): 0.0473
viability ([7]; 0.0032 µM): 0.979
viability ([7]; 0.016 µM): 0.948
viability ([7]; 0.08 µM): 0.914
viability ([7]; 0.4 µM): 0.633
viability ([7]; 2 µM): 0.328
viability ([8]; 0.0032 µM): 0.928
viability ([8]; 0.016 µM): 0.75
viability ([8]; 0.08 µM): 0.367
viability ([8]; 0.4 µM): 0.065
viability ([8]; 2 µM): 0.0807
viability ([9]; 0.0032 µM): 0.914
viability ([9]; 0.016 µM): 0.833
viability ([9]; 0.08 µM): 0.54
viability ([9]; 0.4 µM): 0.0926
viability ([9]; 2 µM): 0.0942
viability ([10]; 0.0032 µM): 1.17
viability ([10]; 0.016 µM): 1.05
viability ([10]; 0.08 µM): 0.754
viability ([10]; 0.4 µM): 0.156
viability ([10]; 2 µM): 0.0607
viability ([11]; 0.0032 µM): 1.01
viability ([11]; 0.016 µM): 0.979
viability ([11]; 0.08 µM): 0.878
viability ([11]; 0.4 µM): 0.112
viability ([11]; 2 µM): 0.0261
viability ([12]; 0.0032 µM): 0.86
viability ([12]; 0.016 µM): 0.858
viability ([12]; 0.08 µM): 0.651
viability ([12]; 0.4 µM): 0.0968
viability ([12]; 2 µM): 0.0387
viability ([13]; 0.0032 µM): 0.742
viability ([13]; 0.016 µM): 1.01
viability ([13]; 0.08 µM): 0.362
viability ([13]; 0.4 µM): 0.0371
viability ([13]; 2 µM): 0.0437
viability ([14]; 0.0032 µM): 0.917
viability ([14]; 0.016 µM): 0.921
viability ([14]; 0.08 µM): 0.604
viability ([14]; 0.4 µM): 0.113
viability ([14]; 2 µM): 0.0958
viability ([15]; 0.0032 µM): 0.794
viability ([15]; 0.016 µM): 1.26
viability ([15]; 0.08 µM): 0.644
viability ([15]; 0.4 µM): 0.534
viability ([15]; 2 µM): 0.983
viability ([16]; 0.0032 µM): 1.04
viability ([16]; 0.016 µM): 0.914
viability ([16]; 0.08 µM): 0.963
viability ([16]; 0.4 µM): 0.0407
viability ([16]; 2 µM): 0.0147
viability ([17]; 0.0032 µM): 0.933
viability ([17]; 0.016 µM): 1.02
viability ([17]; 0.08 µM): 0.912
viability ([17]; 0.4 µM): 0.265
viability ([17]; 2 µM): 0.0335
viability ([18]; 0.0032 µM): 1.04
viability ([18]; 0.016 µM): 0.958
viability ([18]; 0.08 µM): 0.995
viability ([18]; 0.4 µM): 0.227
viability ([18]; 2 µM): 0.187
viability ([19]; 0.0032 µM): 1.02
viability ([19]; 0.016 µM): 0.938
viability ([19]; 0.08 µM): 0.951
viability ([19]; 0.4 µM): 0.469
viability ([19]; 2 µM): 0.627
viability ([20]; 0.0032 µM): 0.98
viability ([20]; 0.016 µM): 0.982
viability ([20]; 0.08 µM): 0.82
viability ([20]; 0.4 µM): 0.0704
viability ([20]; 2 µM): 0.0301

Oc1ccc(/C=C/c2cc(O)cc(O)c2)cc1 [Resveratrol]
viability ([1]; 0.024 µM): 0.621
viability ([1]; 0.12 µM): 0.574
viability ([1]; 0.6 µM): 0.479
viability ([1]; 3 µM): 0.637
viability ([1]; 15 µM): 0.681
viability ([2]; 0.024 µM): 0.873
viability ([2]; 0.12 µM): 0.932
viability ([2]; 0.6 µM): 0.894
viability ([2]; 3 µM): 0.796
viability ([2]; 15 µM): 0.604
viability ([3]; 0.024 µM): 0.981
viability ([3]; 0.12 µM): 1.02
viability ([3]; 0.6 µM): 0.972
viability ([3]; 3 µM): 0.957
viability ([3]; 15 µM): 0.986
viability ([4]; 0.024 µM): 0.89
viability ([4]; 0.12 µM): 0.933
viability ([4]; 0.6 µM): 0.92
viability ([4]; 3 µM): 0.883
viability ([4]; 15 µM): 0.902
viability ([5]; 0.024 µM): 0.879
viability ([5]; 0.12 µM): 0.928
viability ([5]; 0.6 µM): 1
viability ([5]; 3 µM): 0.918
viability ([5]; 15 µM): 0.924
viability ([6]; 0.024 µM): 0.933
viability ([6]; 0.12 µM): 0.921
viability ([6]; 0.6 µM): 0.883
viability ([6]; 3 µM): 0.891
viability ([6]; 15 µM): 0.758
viability ([7]; 0.024 µM): 0.792
viability ([7]; 0.12 µM): 0.994
viability ([7]; 0.6 µM): 0.881
viability ([7]; 3 µM): 0.84
viability ([7]; 15 µM): 0.96
viability ([8]; 0.024 µM): 0.714
viability ([8]; 0.12 µM): 0.966
viability ([8]; 0.6 µM): 0.645
viability ([8]; 3 µM): 0.596
viability ([8]; 15 µM): 0.466
viability ([9]; 0.024 µM): 0.774
viability ([9]; 0.12 µM): 0.734
viability ([9]; 0.6 µM): 0.732
viability ([9]; 3 µM): 0.688
viability ([9]; 15 µM): 0.591
viability ([10]; 0.024 µM): 1.07
viability ([10]; 0.12 µM): 0.797
viability ([10]; 0.6 µM): 0.816
viability ([10]; 3 µM): 0.798
viability ([10]; 15 µM): 0.687
viability ([11]; 0.024 µM): 0.838
viability ([11]; 0.12 µM): 0.767
viability ([11]; 0.6 µM): 0.792
viability ([11]; 3 µM): 0.718
viability ([11]; 15 µM): 0.736
viability ([12]; 0.024 µM): 0.783
viability ([12]; 0.12 µM): 0.735
viability ([12]; 0.6 µM): 0.819
viability ([12]; 3 µM): 0.735
viability ([12]; 15 µM): 0.658
viability ([13]; 0.024 µM): 0.819
viability ([13]; 0.12 µM): 0.652
viability ([13]; 0.6 µM): 0.672
viability ([13]; 3 µM): 0.53
viability ([13]; 15 µM): 0.549
viability ([14]; 0.024 µM): 0.863
viability ([14]; 0.12 µM): 0.832
viability ([14]; 0.6 µM): 0.868
viability ([14]; 3 µM): 0.708
viability ([14]; 15 µM): 0.553
viability ([15]; 0.024 µM): 0.942
viability ([15]; 0.12 µM): 0.954
viability ([15]; 0.6 µM): 0.921
viability ([15]; 3 µM): 0.9
viability ([15]; 15 µM): 0.828
viability ([16]; 0.024 µM): 0.761
viability ([16]; 0.12 µM): 0.766
viability ([16]; 0.6 µM): 0.744
viability ([16]; 3 µM): 0.67
viability ([16]; 15 µM): 0.553
viability ([17]; 0.024 µM): 0.825
viability ([17]; 0.12 µM): 0.864
viability ([17]; 0.6 µM): 0.821
viability ([17]; 3 µM): 0.799
viability ([17]; 15 µM): 0.711
viability ([18]; 0.024 µM): 0.832
viability ([18]; 0.12 µM): 0.823
viability ([18]; 0.6 µM): 0.784
viability ([18]; 3 µM): 0.847
viability ([18]; 15 µM): 0.811
viability ([19]; 0.024 µM): 0.75
viability ([19]; 0.12 µM): 0.671
viability ([19]; 0.6 µM): 0.595
viability ([19]; 3 µM): 0.686
viability ([19]; 15 µM): 0.772
viability ([20]; 0.024 µM): 0.614
viability ([20]; 0.12 µM): 0.63
viability ([20]; 0.6 µM): 0.639
viability ([20]; 3 µM): 0.7
viability ([20]; 15 µM): 1.16

Source: the supplement of paper PMC10733146
